Assay results reported in US8742112B2, “Heterocyclic compound and its use for control of an arthropod pest” (Sumitomo Chemical Company, Limited, priority 2009, dated 2014).

Experiments:
Aphis gossypii = experiment: Test Example 3: treatment of the foot of a cucumber seedling, then inoculation with Aphis gossypii; format: in vivo; details: 200 ppm, 5 ml at foot of cucumber seedling, inoculated after 7 days at 25° C., checked after 6 days, Formulation Example 5
Experimental: The present compound (7) was formulated by the method in Formulation Example 5. This formulation was diluted with water so that the active ingredient concentration was 200 ppm, to prepare a diluted solution for test. The diluted solution for test (5 ml) was used to treat a foot of a cucumber seedling (first true leaf spreading stage) planted in a plastic cup. This cucumber was left in a greenhouse at 25° C. for 7 days. Then; the cucumber leaf surface was inoculated with 30 Aphis gossypii (whole stage). This cucumber was further left in the greenhouse for 6 days, then, the insect number of living Aphis gossypii parasitic on the leaves of this cucumber was checked, and the control value was calculated according to the following formula. Control value (%)={1−(Cb×Tai)/(Cai×Tb)}×100 Letters in the formula represent the following meanings. Cb: insect number before treatment on non-treated area Cai: insect number in observation on non-treated area Tb: insect number before treatment on treated area Tai: insect number in observation on treated area

Bemisia tabaci = experiment: Test Example 4: spray on tomato seedling carrying Bemisia tabaci eggs/larvae; format: in vivo; details: 200 ppm, 10 ml/cup sprayed on tomato seedling, larvae checked after 7 days at 25° C., Formulation Example 5
Experimental: The present compounds (1), (4) to (7), (9) to (12) and (14) to (19) were formulated by the method in Formulation Example 5. This formulation was diluted with water so that the active ingredient concentration was 200 ppm, to prepare a diluted solution for test. On a tomato seedling planted in a plastic cup, Bemisia tabaci adult insects were released and allowed to lay eggs for about 24 hours. The tomato seedling was left in a greenhouse for 8 days. Thereafter, the diluted solution for test was sprayed in a proportion of 10 ml/cup. Further, this tomato seedling was placed in a greenhouse at 25° C. for 7 days. Thereafter, the number of larvae living on the tomato leaves was checked, and the control value was calculated according to the following formula. Control value (%)={1−(Cb×Tai)/(Cai×Tb)}×100 Letters in the formula represent the following meanings. Cb: insect number before treatment on non-treated area Cai: insect number in observation on non-treated area Tb: insect number before treatment on treated area Tai: insect number in observation on treated area

Structure (SMILES) | Control value (Aphis gossypii) | Control value (Bemisia tabaci)
CCS(=O)(=O)c1cnccc1-c1nc2cc(C(F)(F)F)ccc2s1 [compound 7] | ≥ 90% | –
Fc1cnccc1-c1nc2cc(C(F)(F)F)ccc2s1 [compound 1] | – | ≥ 90%
